The values below come from PubChem BioAssay (NCI).

Each structure is given as a SMILES string.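 How tested: cells in 96-well plates exposed to compound for 48 hours at five concentrations. TGI: concentration producing complete growth inhibition.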

Test systems include DMS 273 small cell lung; KM20L2 colon; LXFL 529 NSCLC; M19-MEL melanoma; DMS 114 small cell lung; MDA-N; RXF-631 renal; SNB-78 CNS.
Assay in all cases: NCI tumour cell line growth inhibition, 48 h

Consider `C=C1CCC2C(C)(CO)C(O)CCC2(C)C1C/C=C1/CCOC1=O` (stereo not given), for which the TGI in the test on DMS 273 small cell lung, in the test with KM20L2 colon, in the test with LXFL 529 NSCLC and with M19-MEL melanoma was over 100 µM throughout.
Take `O=C1/C(=C/c2ccc(Cl)cc2)CCC1CN1CCOCC1` (stereo not given): the TGI in the test with DMS 114 small cell lung was 70.2 µM; in the test on DMS 273 small cell lung it was 11.9 µM; with KM20L2 colon, 29.1 µM; in the test on LXFL 529 NSCLC, 6.88 µM; in the test on MDA-N, 18.4 µM; in the test on RXF-631 renal, over 62.5 µM. The TGI in the test on SNB-78 CNS was 48.9 µM.
With `CCOC(OCC)C(CC)[Se]c1ccccc1` (stereo not given), the TGI in the test with DMS 114 small cell lung was 8.89 µM; with DMS 273 small cell lung, 28.4 µM; in the test with KM20L2 colon, 38.2 µM; in the test with LXFL 529 NSCLC it was over 100 µM; with M19-MEL melanoma it was over 100 µM; in the test with RXF-631 renal, over 100 µM. Also, the TGI in the test with SNB-78 CNS is over 100 µM.
As for `COc1ccc(N=Nc2c(-c3ccccc3)nn(C(=O)CC(=O)Nc3ccccc3Cl)c2-c2ccccc2)cc1`, the TGI in the test on DMS 114 small cell lung, in the test with DMS 273 small cell lung, with KM20L2 colon, with LXFL 529 NSCLC, in the test on M19-MEL melanoma and in the test on RXF-631 renal was over 100 µM throughout. Besides, the TGI in the test on SNB-78 CNS is over 100 µM.
On to `Cc1ccc(NC(=O)/C(=N/NC(=O)C[N+](C)(C)C)c2nc3ccccc3[nH]c2=O)cc1`, for which the TGI with DMS 114 small cell lung, in the test on DMS 273 small cell lung, in the test on KM20L2 colon, with LXFL 529 NSCLC, with M19-MEL melanoma and with RXF-631 renal was over 100 µM in each case. In the test with SNB-78 CNS, the TGI was over 100 µM.
For `O=C(/C=C/c1ccccc1O)c1cccc2ccccc12`, the TGI was over 92.2 µM in the test with DMS 114 small cell lung; over 100 µM in the test with DMS 273 small cell lung; over 100 µM with KM20L2 colon; over 100 µM in the test on LXFL 529 NSCLC; over 100 µM in the test on M19-MEL melanoma; over 100 µM with RXF-631 renal. In the test with SNB-78 CNS, the TGI is over 100 µM.
As to `CN(C)C(=S)/N=c1\ss/c(=N\C(=S)N(C)C)n1Cc1ccco1`, the TGI in the test on DMS 114 small cell lung, in the test with DMS 273 small cell lung, in the test with KM20L2 colon, in the test on LXFL 529 NSCLC, in the test on M19-MEL melanoma and in the test on SNB-78 CNS was over 100 µM in each case.
Turning to `CC(=O)OCCOCNC(=S)N/N=C(\C)c1cccs1`, the TGI in the test with DMS 114 small cell lung, with DMS 273 small cell lung, in the test on KM20L2 colon, in the test with LXFL 529 NSCLC, with M19-MEL melanoma and in the test with SNB-78 CNS was over 100 µM throughout.
Turning to `COC1C(CO)OC(n2c3c(Cl)cccc3c3c4c(c5c6cccc(Cl)c6[nH]c5c32)C(=O)NC4=O)C(O)C1O` (stereo not given), the TGI in the test on DMS 114 small cell lung is over 100 µM; in the test on DMS 273 small cell lung, 1.3 µM; with KM20L2 colon it was over 100 µM; in the test with LXFL 529 NSCLC, over 100 µM; in the test on M19-MEL melanoma, 0.898 µM; in the test with MDA-N it was 3.15 µM. For the same compound, the TGI was 84.3 µM in the test with RXF-631 renal and over 100 µM with SNB-78 CNS.
Compound `CN(C)c1ccc2cc3ccc(N(C)C)cc3nc2c1` gave a TGI with MDA-N of 3.03 µM.
`CN(C(=O)C12C3C4C1C1C2C3C41C(O)C(C)(C)C)C(C)(C)C` (stereo not given): the TGI with DMS 114 small cell lung, in the test on DMS 273 small cell lung, in the test on KM20L2 colon, in the test on LXFL 529 NSCLC, with M19-MEL melanoma and in the test on RXF-631 renal was over 100 µM throughout. The TGI in the test with SNB-78 CNS was over 100 µM.
Regarding `Cc1cccc(C(C)C)c1NC(=O)CCl`, the TGI in the test on DMS 114 small cell lung was 50 µM; with DMS 273 small cell lung, over 100 µM; in the test with KM20L2 colon it was over 100 µM; in the test with LXFL 529 NSCLC it was over 100 µM; with M19-MEL melanoma, over 100 µM; in the test on SNB-78 CNS, over 100 µM.
Regarding `Cn1nc2ccc3nccc(NCCNCCO)c3c2n1`, the TGI with KM20L2 colon, in the test with LXFL 529 NSCLC, in the test on M19-MEL melanoma and in the test on SNB-78 CNS was over 100 µM each time.
For `OCC(O)COc1c(Cl)cc(Cl)cc1Cl` (stereo not given), the TGI with DMS 114 small cell lung, with DMS 273 small cell lung, in the test on KM20L2 colon, with LXFL 529 NSCLC, in the test on M19-MEL melanoma and in the test with RXF-631 renal was over 100 µM in each case. In addition, in the test with SNB-78 CNS, the TGI was over 100 µM.
In turn, `CC[C@H]1CN(C)[C@H]2Cc3c([nH]c4ccccc34)C(=O)C[C@H]1C2C(=O)OC` (stereo not given in full) had a TGI in the test with MDA-N of over 100 µM.
Take `CCOc1ccc(NCC2CC/C(=C\c3ccc(Cl)cc3)C2=O)cc1` (stereo not given): the TGI is over 58.9 µM in the test with DMS 114 small cell lung; over 54.1 µM with DMS 273 small cell lung; over 55.8 µM with KM20L2 colon; 25.8 µM in the test on LXFL 529 NSCLC; over 58.6 µM with M19-MEL melanoma; over 100 µM in the test with SNB-78 CNS.
On to `O=C1CCCC(O)=C1SC1=C(O)CCCC1=O`, for which the TGI with DMS 273 small cell lung, in the test with M19-MEL melanoma, with RXF-631 renal and in the test with SNB-78 CNS was over 100 µM throughout.
`CCOC(=O)C(=O)Nc1ccccc1OCC`: the TGI with DMS 114 small cell lung, in the test with LXFL 529 NSCLC, with M19-MEL melanoma and with SNB-78 CNS was over 100 µM each time.
Take `c1ccc2c(c1)Sc1ccccc1N2C1CN2CCC1CC2` (stereo not given): the TGI with DMS 114 small cell lung worked out at 35.3 µM; in the test with DMS 273 small cell lung, 30.7 µM; in the test on KM20L2 colon, 30.2 µM; in the test with LXFL 529 NSCLC it was 30.6 µM; with M19-MEL melanoma, 29.7 µM; in the test with SNB-78 CNS it was 30 µM.
